The results in this text go back to ChEMBL document CHEMBL1201862, “PubChem BioAssay data set” (2004).

Common to all, as to experiment: NCI tumour cell line growth inhibition, 48 h
Test [1] concerns COLO 205.
The subject of test [2] is EKVX.
Test [3] concerns HCC 2998.
Test [4] relates to HT-29.
Test [5] relates to IGROV-1.
The subject of test [6] is K562.
For test [7], the system named is KM12.
In test [8] the test system is M14.
The subject of test [9] is MOLT-4.
The test system of test [10] is SF-268.
For test [11], the system named is SK-MEL-28.
For test [12], the system named is SK-OV-3.
Test [13] deals with SNB-75.
For test [14], the system named is SW-620.
Test [15] concerns UACC-62.

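Cultured in 96-well plates, cells were exposed to test compound for 48 hours across five concentrations. GI50: concentration for 50% inhibition of growth.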 Activity calls are given as the source filed them. Cut-off read from the data, not from the text of the source: active = GI50 up to about 1.1 µM and inactive = higher. Where only a bound is given, the exact number is not on record here.

Take `O=C1OC(Cl)C(N=P(c2ccccc2)(c2ccccc2)c2ccccc2)=C1Cl` (stereo not given): the GI50 in test [1], in test [2], in test [3], in test [4], in [5] and in [6] was > 100 µM (inactive) each time. For the same compound, the GI50 in [7], in test [8], in test [9], in [10], in test [11] and in test [12] was > 100 µM (inactive) each time. For the same compound, the GI50 was 36.4 µM (inactive) in test [13], > 100 µM (inactive) in test [14] and > 100 µM (inactive) in test [15].

On to `C#CCN(N=O)C(=O)NCCCCC(NC(C)=O)C(=O)NCc1ccccc1` (stereo not given), for which the GI50 in [1] was > 100 µM (inactive); in [2] it was > 100 µM (inactive); in test [3], > 100 µM (inactive); in test [4] it was > 100 µM (inactive); in test [5], > 100 µM (inactive); in [6], 54.1 µM (inactive). The GI50 in [7] was > 100 µM (inactive); in test [8], > 100 µM (inactive); in test [9], 28.4 µM (inactive); in test [10] it was > 100 µM (inactive); in test [11], > 100 µM (inactive); in [12], > 100 µM (inactive). Further, the GI50 in [13], in test [14] and in test [15] was > 100 µM (inactive) throughout.

As for `Cc1cc(Br)cc(C)c1NC(=O)C(=O)CC(=O)c1sc(-n2nc(-c3ccccc3)cc2-c2ccccc2)nc1C`, the GI50 in test [1], in test [2], in [3], in test [4], in test [5] and in test [6] was > 100 µM (inactive) in each case. The GI50 in [7], in [8], in test [9], in test [10], in test [11] and in [12] was > 100 µM (inactive) in each case. In addition, the figures for the GI50 in test [13], in test [14] and in test [15] were 49.9 µM (inactive), > 100 µM (inactive) and > 100 µM (inactive), respectively.

As for `Cc1cccc(NC(=O)C(=O)C(C2OC(=O)c3ccccc32)[N+](=O)[O-])c1C` (stereo not given), the GI50 in test [1] was 15.4 µM (inactive); in [2], 17.6 µM (inactive); in test [3] it was 13.8 µM (inactive); in [4] it was 16.7 µM (inactive); in test [5] it was 9.82 µM (inactive); in test [6] it was 4.42 µM (inactive). The GI50 in test [7] is 12.8 µM (inactive); in test [8], 13.8 µM (inactive); in [9], 2.99 µM (inactive); in test [10], 7.52 µM (inactive); in [11] it was 12.6 µM (inactive); in [12] it was 13.6 µM (inactive). Also, the GI50 in test [13] is 5.51 µM (inactive); in test [14] it was 5.57 µM (inactive); in [15] it was 10.9 µM (inactive).

For the compound `CCc1cccc(C)c1NC(=S)NC(=O)c1ccccc1C(=O)NC(=S)Nc1c(C)cccc1CC`, the GI50 in [1] is 61.1 µM (inactive); in test [2] it was 59.6 µM (inactive); in test [3] it was 90.6 µM (inactive); in [4] it was 43 µM (inactive); in [5], 93.8 µM (inactive); in [6] it was 38.9 µM (inactive). Further, the GI50 in test [7] is 77.1 µM (inactive); in test [8] it was > 100 µM (inactive); in [9], 53.7 µM (inactive); in test [10] it was > 100 µM (inactive); in [11] it was > 100 µM (inactive); in test [12], > 100 µM (inactive). Also, the GI50 in test [13] is > 100 µM (inactive); in [14] it was 75.3 µM (inactive); in [15] it was 37.7 µM (inactive).

For `CN(C)c1ncnc2c1Cc1ccccc1C(=O)N2C`, the GI50 in [1], in test [2], in test [3], in test [4], in [5] and in test [6] was > 100 µM (inactive) in each case. Also, the GI50 in [7], in test [8], in [9], in [10], in [11] and in [12] was > 100 µM (inactive) in each case. In addition, the GI50 in test [13], in [14] and in test [15] was > 100 µM (inactive) each time.

`Cc1ccc(/C=C/C(=O)c2ccc(Cl)c(Cl)c2)cc1`: the GI50 in [1], in [2], in test [3], in test [4], in [5] and in [6] was > 100 µM (inactive) each time. For the same compound, the GI50 in [7] was > 100 µM (inactive); in test [8], > 100 µM (inactive); in test [9], > 100 µM (inactive); in test [10] it was > 100 µM (inactive); in [11], > 100 µM (inactive); in test [12], > 10 µM (inactive). Also, the GI50 in [13], in test [14] and in [15] was > 100 µM (inactive) throughout.

Turning to `CSc1cc(C(C)(C)C)ccc1C(O)c1ccc(C(C)(C)C)cc1SC`, the GI50 in test [1] is 11 µM (inactive); in test [2], 6.81 µM (inactive); in [3], 18.2 µM (inactive); in [4], 5.79 µM (inactive); in test [5], 10.1 µM (inactive); in [6] it was 7.14 µM (inactive). Further, the GI50 in test [7] was 11.5 µM (inactive); in test [8], 12.2 µM (inactive); in test [9] it was 3.35 µM (inactive); in [10], 13.3 µM (inactive); in test [11], 17.5 µM (inactive); in test [12] it was 17.5 µM (inactive). Moreover, the GI50 in test [13] was 12.8 µM (inactive); in test [14], 11.3 µM (inactive); in test [15] it was 15.3 µM (inactive).

On to `Cn1c(=O)c(C(c2ccccc2)c2c(O)c3ccccc3n(C)c2=O)c(O)c2ccccc21`, for which the GI50 in test [1], in [2], in test [3], in test [4], in [5] and in test [6] was > 100 µM (inactive) each time. In addition, the GI50 is > 100 µM (inactive) in test [7]; > 100 µM (inactive) in test [8]; 45.3 µM (inactive) in test [9]; > 100 µM (inactive) in test [10]; > 100 µM (inactive) in test [11]; > 100 µM (inactive) in test [12]. Further, the GI50 in [13] was 38.1 µM (inactive); in [14], > 100 µM (inactive); in test [15] it was > 100 µM (inactive).

With `CC(C)[Si](OCC1CC(C#N)OC(C)(C)O1)(C(C)C)C(C)C` (stereo not given), the GI50 is 17.3 µM (inactive) in [1]; 30.3 µM (inactive) in test [2]; 21.2 µM (inactive) in test [3]; 14.6 µM (inactive) in test [4]; 28.2 µM (inactive) in test [5]; 19 µM (inactive) in test [6]. For the same compound, the GI50 in test [7] was 17.5 µM (inactive); in test [8], 20 µM (inactive); in [9], 19.6 µM (inactive); in test [10] it was 26.9 µM (inactive); in test [11] it was 39.4 µM (inactive); in [12], 21.3 µM (inactive). Besides, the GI50 is 31.9 µM (inactive) in test [13], 18.9 µM (inactive) in [14] and 30.1 µM (inactive) in test [15].

Take `C=C1CC[C@@H]2C(C)(C)C(O)CCC2(C)C1COc1ccc2ccc(=O)oc2c1` (stereo not given in full): the GI50 is 14.9 µM (inactive) in test [1]; 19.3 µM (inactive) in [2]; 19.9 µM (inactive) in test [3]; 18.9 µM (inactive) in [4]; 18.9 µM (inactive) in test [5]; 16.6 µM (inactive) in test [6]. Also, the GI50 in [7] is 15.6 µM (inactive); in [8] it was 18.6 µM (inactive); in test [9] it was 14.7 µM (inactive); in test [10], 18.9 µM (inactive); in test [11], 18.1 µM (inactive); in [12], 23.4 µM (inactive). Also, the GI50 in test [13] was 18 µM (inactive); in test [14] it was 22.1 µM (inactive); in test [15], 15.8 µM (inactive).

On to `Cc1cccc2cc3cccc(C(=O)NCCN(C)C)c3nc12`, for which the GI50 was 0.0798 µM (active) in test [1]; 0.362 µM (active) in test [2]; 0.181 µM (active) in test [3]; 0.131 µM (active) in [4]; 0.38 µM (active) in [5]; 0.203 µM (active) in [6]. Also, the GI50 is 0.397 µM (active) in test [7]; 0.433 µM (active) in [8]; < 0.01 µM (active) in test [9]; 0.296 µM (active) in test [10]; 0.519 µM (active) in test [11]; 0.138 µM (active) in [12]. For the same compound, the GI50 in test [13] was 0.235 µM (active); in [14], 0.0394 µM (active); in test [15], 0.129 µM (active).

On to `COc1ccc(NCc2cc(OC)cc(OC)c2)cc1`, for which the GI50 in test [1] was 9.33 µM (inactive); in test [2] it was 78.5 µM (inactive); in test [3] it was 12.1 µM (inactive); in [4], 6.7 µM (inactive); in [5] it was 22.5 µM (inactive); in test [6], 3.88 µM (inactive). Also, the GI50 in test [7] was 5.7 µM (inactive); in test [8], 22.2 µM (inactive); in test [9], 17.1 µM (inactive); in test [10] it was 26 µM (inactive); in test [11], 24.5 µM (inactive); in test [12] it was 30.1 µM (inactive). The GI50 was 23.4 µM (inactive) in test [13], 8.32 µM (inactive) in [14] and 9.48 µM (inactive) in test [15].
